Reference: patent US4504580A, “Antibiotics produced by fermentation of a novel strain of Streptomyces hygroscopicus” (Bristol-Myers Company, priority 1983, dated 1985)
In brackets after ≈: the same amount, converted by molar mass. Like-named read-outs stand apart in the source and are kept apart here.

Assays:
Format in all cases: cell-based
[1] = test system: Proteus morganii A9553; test: MIC by serial two-fold agar dilution, P. morganii A9553; conditions: Morganella morganii, A9553
Procedure: (§1) The minimum inhibitory concentrations (MIC) of Bu-2659A, B, C, D and E were determined for a variety of gram-positive and gram-negative bacteria by the serial two-fold agar dilution method using the Steer's multi-inoculating apparatus. The inoculum was standardized as a 10^4 dilution of an overnight culture of the test organisms in Heart Infusion Broth (Difco). […] Reference antibiotics utilized in these tests included commercially available neomycin as well as its components, neomycins B and C [as used herein, the term "neomycin" means the commercial product containing neomycins B and C at an approximate ratio of 7:3], paromomycin [the commercial product containing >90% of paromomycin I and <10% of paromomycin II] and ribostamycin.

[2] = test system: Serratia marcescens A20019; test: MIC by serial two-fold agar dilution, S. marcescens A20019; conditions: Serratia marcescens, A20019
Procedure: as §1

[3] = test system: Micrococcus flavus D12; test: MIC by serial two-fold agar dilution, M. flavus D12; conditions: Micrococcus flavus, D12
Procedure: as §1

[4] = test system: Escherichia coli Juhl; test: MIC by serial two-fold agar dilution, E. coli Juhl; conditions: Escherichia coli
Procedure: as §1

[5] = test system: Staphylococcus aureus Smith; test: MIC by serial two-fold agar dilution, S. aureus Smith; conditions: Staphylococcus aureus
Procedure: as §1

[6] = test system: Proteus mirabilis A9906; test: MIC by serial two-fold agar dilution, P. mirabilis A9906; conditions: Proteus mirabilis, A9906
Procedure: as §1

[7] = test system: Micrococcus luteus PCI 1001; test: MIC by serial two-fold agar dilution, M. luteus PCI 1001; conditions: Micrococcus luteus, PCI1001
Procedure: as §1

[8] = test system: Proteus mirabilis A9554; test: MIC by serial two-fold agar dilution, P. mirabilis A9554; conditions: Proteus mirabilis, A9554
Procedure: as §1

[9] = test system: gram-positive and gram-negative bacteria; test: In vitro antibacterial spectra (MIC), overall comparison, Table 7; conditions: Table 7 organisms; for activity relative to Bu-2659A: as active as Bu-2659A
Procedure: as §1

[10] = test system: Proteus vulgaris A9436; test: MIC by serial two-fold agar dilution, P. vulgaris A9436; conditions: Proteus vulgaris, A9436
Procedure: as §1

[11] = test system: Pseudomonas aeruginosa D15; test: MIC by serial two-fold agar dilution, P. aeruginosa D15; conditions: Pseudomonas aeruginosa, D15
Procedure: as §1

[12] = test system: Pseudomonas aeruginosa A9930; test: MIC by serial two-fold agar dilution, P. aeruginosa A9930; conditions: Pseudomonas aeruginosa, A9930
Procedure: as §1

[13] = test system: Staphylococcus aureus 209P; test: MIC by serial two-fold agar dilution, S. aureus 209P; conditions: Staphylococcus aureus, 209P
Procedure: as §1

[14] = test system: Klebsiella pneumoniae D11; test: MIC by serial two-fold agar dilution, K. pneumoniae D11; conditions: Klebsiella pneumoniae, D11
Procedure: as §1

[15] = test system: Staphylococcus aureus D136; test: MIC by serial two-fold agar dilution, S. aureus D136; conditions: Staphylococcus aureus, D136
Procedure: as §1

[16] = test system: Proteus rettgeri A15167; test: MIC by serial two-fold agar dilution, P. rettgeri A15167; conditions: Providencia rettgeri, A15167
Procedure: as §1

[17] = test system: Bacillus subtilis PCI 219; test: MIC by serial two-fold agar dilution, B. subtilis PCI 219; conditions: Bacillus subtilis, PCI219
Procedure: as §1

[18] = test system: Escherichia coli NIHJ; test: MIC by serial two-fold agar dilution, E. coli NIHJ; conditions: Escherichia coli
Procedure: as §1

[19] = test system: Escherichia coli JR88; test: MIC, aminoglycoside-resistant E. coli JR88; conditions: Escherichia coli, JR88
Procedure: as §1

[20] = Table 7, Mueller-Hinton agar, read-out: MIC

Row | SMILES | MIC [1, 20] | MIC [2, 20] | MIC [3, 20] | MIC [4, 20] | MIC [5, 20] | MIC [6, 20] | MIC [7, 20] | MIC [8, 20] | MIC [10, 20] | MIC [11, 20] | MIC [12, 20] | MIC [13, 20] | MIC [14, 20] | MIC [15, 20] | MIC [16, 20] | MIC [17, 20] | MIC [18, 20] | MIC [5] | MIC [8] | MIC [10] | also measured
1 | NC[C@H]1O[C@H](O[C@H]2[C@H](O[C@@H]3O[C@H](CO)[C@@H](O[C@H]4O[C@H](CN)[C@@H](O)[C@H](O)[C@H]4N)[C@H]3O)[C@@H](O)[C@H](O)C[C@@H]2N)[C@H](N)[C@@H](O)[C@@H]1O [Bu-2659B, 1-deamino-1-hydroxyneomycin C] | 12.5 µg/mL (≈ 20.3 µM) | 100 µg/mL (≈ 162 µM) | > 100 µg/mL | 50 µg/mL (≈ 81.2 µM) | 3.1 µg/mL (≈ 5.04 µM) | 6.3 µg/mL (≈ 10.2 µM) | > 100 µg/mL | 6.3 µg/mL (≈ 10.2 µM) | 3.1 µg/mL (≈ 5.04 µM) | > 100 µg/mL | > 100 µg/mL | 3.1 µg/mL (≈ 5.04 µM) | 1.6 µg/mL (≈ 2.6 µM) | 6.3 µg/mL (≈ 10.2 µM) | 3.1 µg/mL (≈ 5.04 µM) | 0.4 µg/mL (≈ 0.65 µM) | 12.5 µg/mL (≈ 20.3 µM) | – | – | – | activity relative to Bu-2659A [9]: approximately 1/4
2 | NC[C@@H]1O[C@H](O[C@H]2[C@@H](O)[C@H](O[C@@H]3[C@@H](O)[C@H](O)C[C@H](N)[C@H]3O[C@H]3O[C@H](CO)[C@@H](O)[C@H](O)[C@H]3N)O[C@@H]2CO)[C@H](N)[C@@H](O)[C@@H]1O [Bu-2659C, 1-deamino-1-hydroxyparomomycin I] | 6.3 µg/mL (≈ 10.2 µM) | 6.3 µg/mL (≈ 10.2 µM) | > 100 µg/mL | 25 µg/mL (≈ 40.5 µM) | 6.3 µg/mL (≈ 10.2 µM) | 3.1 µg/mL (≈ 5.03 µM) | > 100 µg/mL | 3.1 µg/mL (≈ 5.03 µM) | 1.6 µg/mL (≈ 2.59 µM) | 25 µg/mL (≈ 40.5 µM) | 12.5 µg/mL (≈ 20.3 µM) | 3.1 µg/mL (≈ 5.03 µM) | 1.6 µg/mL (≈ 2.59 µM) | 6.3 µg/mL (≈ 10.2 µM) | 3.1 µg/mL (≈ 5.03 µM) | 0.8 µg/mL (≈ 1.3 µM) | 6.3 µg/mL (≈ 10.2 µM) | – | – | – | activity relative to Bu-2659A [9]: approximately 1/4
3 | NC[C@H]1O[C@H](O[C@H]2[C@H](O[C@@H]3O[C@H](CO)[C@@H](O[C@H]4O[C@@H](CO)[C@@H](O)[C@H](O)[C@H]4N)[C@H]3O)[C@@H](O)[C@H](O)C[C@@H]2N)[C@H](N)[C@@H](O)[C@@H]1O [Bu-2659D, 1,6'"-dideamino-1,6'"-dihydroxyneomycin B] | 12.5 µg/mL (≈ 20.3 µM) | 100 µg/mL (≈ 162 µM) | 100 µg/mL (≈ 162 µM) | 50 µg/mL (≈ 81.1 µM) | 25 µg/mL (≈ 40.5 µM) | 6.3 µg/mL (≈ 10.2 µM) | 100 µg/mL (≈ 162 µM) | 6.3 µg/mL (≈ 10.2 µM) | 3.1 µg/mL (≈ 5.03 µM) | > 100 µg/mL | 50 µg/mL (≈ 81.1 µM) | 6.3 µg/mL (≈ 10.2 µM) | 1.6 µg/mL (≈ 2.59 µM) | 25 µg/mL (≈ 40.5 µM) | 3.1 µg/mL (≈ 5.03 µM) | 1.6 µg/mL (≈ 2.59 µM) | 12.5 µg/mL (≈ 20.3 µM) | – | – | – | in vitro antibacterial activity, in words [9]: less active than components B and C
4 | NC[C@H]1O[C@H](O[C@H]2[C@H](O)[C@@H](O)[C@H](N)C[C@@H]2N)[C@H](N)[C@@H](O)[C@@H]1O [Neamine, neamine] | – | – | – | – | – | – | – | – | – | – | – | – | – | – | – | – | – | 3.1 µg/mL (≈ 9.62 µM) | 25 µg/mL (≈ 77.6 µM) | 6.3 µg/mL (≈ 19.5 µM) | MIC [19]: 12.5 µg/mL (≈ 38.8 µM); MIC [12]: 400 µg/mL (≈ 1240 µM); MIC [13]: 6.3 µg/mL (≈ 19.5 µM); MIC [14]: 12.5 µg/mL (≈ 38.8 µM); MIC [17]: 3.1 µg/mL (≈ 9.62 µM); MIC [18]: 12.5 µg/mL (≈ 38.8 µM)
5 | NC[C@@H]1O[C@H](O[C@H]2[C@@H](O)[C@H](O[C@@H]3[C@@H](O)[C@H](N)C[C@H](N)[C@H]3O[C@H]3O[C@H](CN)[C@@H](O)[C@H](O)[C@H]3N)O[C@@H]2CO)[C@H](N)[C@@H](O)[C@@H]1O [Neomycin B, neomycin B] | – | – | – | – | – | – | – | – | – | – | – | – | – | – | – | – | – | 0.4 µg/mL (≈ 0.651 µM) | 0.8 µg/mL (≈ 1.3 µM) | 0.8 µg/mL (≈ 1.3 µM) | MIC [1]: 3.1 µg/mL (≈ 5.04 µM); MIC [2]: 1.6 µg/mL (≈ 2.6 µM); MIC [3]: 1.6 µg/mL (≈ 2.6 µM); MIC [4]: 3.1 µg/mL (≈ 5.04 µM); MIC [6]: 0.8 µg/mL (≈ 1.3 µM); MIC [7]: 0.8 µg/mL (≈ 1.3 µM); MIC [11]: 3.1 µg/mL (≈ 5.04 µM); MIC [12]: 3.1 µg/mL (≈ 5.04 µM); MIC [13]: 0.4 µg/mL (≈ 0.651 µM); MIC [14]: 0.2 µg/mL (≈ 0.325 µM); MIC [15]: 0.4 µg/mL (≈ 0.651 µM); MIC [16]: 1.6 µg/mL (≈ 2.6 µM); MIC [17]: < 0.05 µg/mL; MIC [18]: 1.6 µg/mL (≈ 2.6 µM)
6 | NC[C@H]1O[C@H](O[C@H]2[C@H](O[C@@H]3O[C@H](CO)[C@@H](O[C@H]4O[C@H](CN)[C@@H](O)[C@H](O)[C@H]4N)[C@H]3O)[C@@H](O)[C@H](N)C[C@@H]2N)[C@H](N)[C@@H](O)[C@@H]1O [Neomycin C, neomycin C] | – | – | – | – | – | – | – | – | – | – | – | – | – | – | – | – | – | 1.6 µg/mL (≈ 2.6 µM) | 3.1 µg/mL (≈ 5.04 µM) | 1.6 µg/mL (≈ 2.6 µM) | MIC [1]: 3.1 µg/mL (≈ 5.04 µM); MIC [2]: 6.3 µg/mL (≈ 10.2 µM); MIC [3]: 100 µg/mL (≈ 163 µM); MIC [4]: 12.5 µg/mL (≈ 20.3 µM); MIC [6]: 1.6 µg/mL (≈ 2.6 µM); MIC [7]: 50 µg/mL (≈ 81.3 µM); MIC [11]: > 100 µg/mL; MIC [12]: 50 µg/mL (≈ 81.3 µM); MIC [13]: 0.8 µg/mL (≈ 1.3 µM); MIC [14]: 0.4 µg/mL (≈ 0.651 µM); MIC [15]: 1.6 µg/mL (≈ 2.6 µM); MIC [16]: 1.6 µg/mL (≈ 2.6 µM); MIC [17]: < 0.05 µg/mL; MIC [18]: 3.1 µg/mL (≈ 5.04 µM)
